Laboratory results reported in paper PMC4327905 (Chemico-biological interactions, 2015).
Counter-ions that a name gives are not always drawn.

Biological target: T1, transthyretin (Homo sapiens, UniProt P02766)
Test: ANS fluorescence displacement
Assay type: binding

| SMILES | Kd |
| --- | --- |
| O=S(=O)(O)Oc1ccc(-c2ccc(Cl)cc2)c(Cl)c1 [4-PCB 8 sulfate, 2,4′-dichloro-4-sulfooxy-biphenyl] | 4.3 nM |

Biological target: T1, transthyretin
Test: acid-induced amyloid fibril formation, turbidity at […] nm, […] compound and […] TTR
Assay type: biochemical

| SMILES | Fibril Formation (%) |
| --- | --- |
| Oc1cccc(-c2ccc(Cl)cc2)c1 [3′-OHPCB 3, 4′-chloro-biphenyl-3-ol] | 52.3 % fibril formation |
| O=S(=O)(O)Oc1cccc(-c2ccc(Cl)cc2)c1 [3′-PCB 3 sulfate, 4-chloro-3′-sulfooxy-biphenyl] | 30.7 % fibril formation |
| Oc1ccc(-c2cccc(Cl)c2)cc1Cl [4-OHPCB 11, 3,3′-dichloro-biphenyl-4-ol] | 7.5 % fibril formation |
| O=S(=O)(O)Oc1ccc(-c2cccc(Cl)c2)cc1Cl [4-PCB 11 sulfate, 3,3′-dichloro-4-sulfooxy-biphenyl] | 8.3 % fibril formation |
| O=S(=O)(O)Oc1ccc(-c2ccc(Cl)c(Cl)c2)c(Cl)c1 [4-PCB 33 sulfate, 2,3′,4′-trichloro-4-sulfooxy-biphenyl] | 12.7 % fibril formation |
| Oc1c(Cl)cc(-c2ccc(Cl)c(Cl)c2)cc1Cl [4′-OHPCB 79, 3,3′,4′,5-tetrachloro-biphenyl-4-ol, reference compound] | 32.2 % fibril formation |
| O=S(=O)(O)Oc1ccc(-c2ccc(Cl)cc2)cc1 [4′-PCB 3 sulfate, 4-chloro-4′-sulfooxy-biphenyl] | 37.2 % fibril formation |
| O=S(=O)(O)Oc1ccc(-c2cc(Cl)ccc2Cl)cc1Cl [4′-PCB 26 sulfate, 2,3′,5-trichloro-4′-sulfooxy-biphenyl] | 10.5 % fibril formation |
| O=C(O)c1ccccc1Nc1cccc(C(F)(F)F)c1 [Flufenamic acid, reference compound] | 22.3 % fibril formation |
